Experiments:
Type in all cases: in vivo
[1] = system: creeping red Fescue (FESRU, Festuca rubra); assay: Field trial: percent growth inhibition of creeping red Fescue
Experimental: (§1) Trials were conducted under field conditions in Canada. Trial sites were located in perennial forage grass areas. Forage grasses tested included: Bromegrass, Timothy Fescue and Wheatgrass species, including: meadow Bromegrass (BROCO, Bromus commutatus), smooth Brome grass (BROIN, Bromus inermus), Timothy (PHLPR, Phleum pretense), creeping red Fescue (FESRU, Festuca rubra), Tall Fescue (FESAR, Festuca arundinacea), and Western Wheatgrass (AGRSM, Agropyron smithii). The grasses were grown using normal cultural practices for fertilization, seeding, and maintenance to ensure good growth of the grasses. The trials were conducted using normal research methodology. Trial plots were between 2 to 5 meters (m) wide by 5 to 20 m long. All treatments were applied using a randomized complete block trial design with 3 or 4 replications per treatment. The trial sites had populations of homogeneous or heterogeneous perennial forage grass species present. Treatments consisted of pyroxsulam formulations (Simplicity® (trademark of Dow AgroSciences LLC for pyroxsulam+cloquintocet) or water-dispersible formulations of pyroxsulam) alone, or in tank mixes with Milestone® herbicide (trademark of Dow AgroSciences LLC for aminopyralid) or ClearView® herbicide (trademark of Dow AgroSciences LLC for aminopyralid+metsulfuron-methyl) with or without 2,4-D ester applied in water. Adjuvants were applied at 0.2% to 0.5% V/V. The application volumes were between 50 to 200 liters per hectare (L/ha). All application were made using precision gas hand sprayers or calibrated ATV sprayer using a 2 or 5 m boom using flat fan (80° or 110°) nozzles to broadcast the treatments post-emergent on the vegetation or soil.
(§2) The treated plots and control plots were rated blind at various intervals after application. Ratings were based on Percent (%) Visual growth suppression (reduction) from untreated grass, where […] or growth inhibition compared to the untreated grass growth. Quantitative measurements were also taken at various intervals after application, and measured in cm or inches height of leaf blade top height from the ground.

[2] = system: meadow Bromegrass (BROCO, Bromus commutatus); assay: Field trial: height of meadow Bromegrass after pyroxsulam application; details: for Height (cm): mean of 3 replicates
Experimental: as §1, §2

[3] = system: All grass species combined (CRFescue, Brome Grass, Quackgrass); assay: Field trial: biomass reduction of pyroxsulam-treated vs untreated grass; details: 30 DAA
Experimental: Trials were conducted under field conditions in Canada. Trial sites were located in perennial forage grass areas. Forage grasses tested included: Bromegrass, Timothy Fescue and Wheatgrass species, including: meadow Bromegrass (BROCO, Bromus commutatus), smooth Brome grass (BROIN, Bromus inermus), Timothy (PHLPR, Phleum pretense), creeping red Fescue (FESRU, Festuca rubra), Tall Fescue (FESAR, Festuca arundinacea), and Western Wheatgrass (AGRSM, Agropyron smithii). The grasses were grown using normal cultural practices for fertilization, seeding, and maintenance to ensure good growth of the grasses. The trials were conducted using normal research methodology. Trial plots were between 2 to 5 meters (m) wide by 5 to 20 m long. All treatments were applied using a randomized complete block trial design with 3 or 4 replications per treatment. The trial sites had populations of homogeneous or heterogeneous perennial forage grass species present. […]
The treated plots and control plots were rated blind at various intervals after application. […] Quantitative measurements were also taken at various intervals after application, and measured in cm or inches height of leaf blade top height from the ground.

[4] = 15 g ai/ha, 0 days after application
[5] = 15 g ai/ha, 7 days after application
[6] = 15 g ai/ha, 14 days after application
[7] = 15 g ai/ha, 21 days after application
[8] = 15 g ai/ha, 30 days after application
[9] = 15 g ai/ha, 37 days after application
[10] = 15 g ai/ha, 42 days after application
[11] = 15 g ai/ha, 50 days after application
[12] = 15 g ai/ha, 56 days after application
[13] = 15 g ai/ha, 65 days after application
[14] = 15 g ai/ha, 72 days after application
[15] = 30 g ai/ha, 0 days after application
[16] = 30 g ai/ha, 7 days after application
[17] = 30 g ai/ha, 14 days after application
[18] = 30 g ai/ha, 21 days after application
[19] = 30 g ai/ha, 30 days after application
[20] = 30 g ai/ha, 37 days after application
[21] = 30 g ai/ha, 42 days after application
[22] = 30 g ai/ha, 50 days after application
[23] = 30 g ai/ha, 56 days after application
[24] = 30 g ai/ha, 65 days after application
[25] = 30 g ai/ha, 72 days after application

COc1cc(OC)n2nc(NS(=O)(=O)c3c(C(F)(F)F)ccnc3OC)nc2n1 [Pyroxsulam, N-(5,7-dimethoxy[1,2,4]-triazolo[1,5-α]pyrimidin-2-yl)-2-methoxy-4-(trifluoromethyl)-3-pyridinesulfonamide]
% Growth Inhibition ([1]; 15 g ai/ha, week 1): 0% | % Growth Inhibition ([1]; 15 g ai/ha, week 2): 7% | % Growth Inhibition ([1]; 15 g ai/ha, week 3): 35% | % Growth Inhibition ([1]; 15 g ai/ha, week 4): 30% | % Growth Inhibition ([1]; 15 g ai/ha, week 5): 23% | % Growth Inhibition ([1]; 15 g ai/ha, week 6): 21% | % Growth Inhibition ([1]; 15 g ai/ha, week 7): 15% | % Growth Inhibition ([1]; 15 g ai/ha, week 8): 4% | % Growth Inhibition ([1]; 15 g ai/ha, week 9): 8% | % Growth Inhibition ([1]; 15 g ai/ha, week 10): 12% | % Growth Inhibition ([1]; 30 g ai/ha, week 1): 0% | % Growth Inhibition ([1]; 30 g ai/ha, week 2): 14% | % Growth Inhibition ([1]; 30 g ai/ha, week 3): 35% | % Growth Inhibition ([1]; 30 g ai/ha, week 4): 32% | % Growth Inhibition ([1]; 30 g ai/ha, week 5): 32% | % Growth Inhibition ([1]; 30 g ai/ha, week 6): 21% | % Growth Inhibition ([1]; 30 g ai/ha, week 7): 19% | % Growth Inhibition ([1]; 30 g ai/ha, week 8): 12% | % Growth Inhibition ([1]; 30 g ai/ha, week 9): 4% | % Growth Inhibition ([1]; 30 g ai/ha, week 10): 12% | Height (% of Untreated) [2, 4]: 100.0% | Height (cm) [2, 4]: 20 cm | Height (% of Untreated) [2, 5]: 57.1% | Height (cm) [2, 5]: 20 cm | Height (% of Untreated) [2, 6]: 50.0% | Height (cm) [2, 6]: 25 cm | Height (% of Untreated) [2, 7]: 47.6% | Height (cm) [2, 7]: 30 cm | Height (% of Untreated) [2, 8]: 45.0% | Height (cm) [2, 8]: 27 cm | Height (% of Untreated) [2, 9]: 43.1% | Height (cm) [2, 9]: 28 cm | Height (% of Untreated) [2, 10]: 45.2% | Height (cm) [2, 10]: 33 cm | Height (% of Untreated) [2, 11]: 53.8% | Height (cm) [2, 11]: 42 cm | Height (% of Untreated) [2, 12]: 52.4% | Height (cm) [2, 12]: 43 cm | Height (% of Untreated) [2, 13]: 58.5% | Height (cm) [2, 13]: 48 cm | Height (% of Untreated) [2, 14]: 76.8% | Height (cm) [2, 14]: 63 cm | Height (% of Untreated) [2, 15]: 100.0% | Height (cm) [2, 15]: 20 cm | Height (% of Untreated) [2, 16]: 57.1% | Height (cm) [2, 16]: 20 cm | Height (% of Untreated) [2, 17]: 50.0% | Height (cm) [2, 17]: 25 cm | Height (% of Untreated) [2, 18]: 44.4% | Height (cm) [2, 18]: 28 cm | Height (% of Untreated) [2, 19]: 41.7% | Height (cm) [2, 19]: 25 cm | Height (% of Untreated) [2, 20]: 38.5% | Height (cm) [2, 20]: 25 cm | Height (% of Untreated) [2, 21]: 45.2% | Height (cm) [2, 21]: 33 cm | Height (% of Untreated) [2, 22]: 51.3% | Height (cm) [2, 22]: 40 cm | Height (% of Untreated) [2, 23]: 51.2% | Height (cm) [2, 23]: 42 cm | Height (% of Untreated) [2, 24]: 52.4% | Height (cm) [2, 24]: 43 cm | Height (% of Untreated) [2, 25]: 57.3% | Height (cm) [2, 25]: 47 cm | Biomass reduction (%) ([3]; 15 g/ha): 40% | Biomass reduction (%) ([3]; 30 g/ha): 38%

From patent US20130217578A1, “Growth inhibition of perennial forage grasses with Pyroxsulam” (Dow AgroSciences LLC, priority 2010, published 2013)
